Measured values published in PubChem BioAssay (NCI).
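Test compounds were applied to cells in 96-well plates for 48 hours at 5 doses. At the TGI there is no net growth.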

Columns and labels:
Experiment in all cases: inhibition of tumour cell growth, NCI panel, 48 h
[1] = test system: SF-539 CNS
[2] = test system: SW-620 colon
[3] = test system: K-562 leukemia
[4] = test system: OVCAR-4 ovarian
[5] = test system: KM12 colon
[6] = test system: LOX IMVI melanoma
[7] = test system: HS 578T breast
[8] = test system: OVCAR-5 ovarian
[9] = test system: NCI-H522 lung
[10] = test system: SF-295 CNS
[11] = test system: RXF 393 renal
[12] = test system: NCI-H23 lung
[13] = test system: EKVX NSCLC
[14] = test system: U251 CNS
[15] = test system: SN12C renal
[16] = test system: HCC-2998 colon
[17] = test system: TK-10 renal
[18] = test system: M14 melanoma
[19] = test system: SF-268 CNS
[20] = test system: MDA-N
[21] = test system: HCT-15 colon
[22] = test system: HOP-62 NSCLC
[23] = test system: DU-145 prostate
[24] = test system: BT-549 breast
[25] = test system: UACC-257 melanoma
[26] = test system: SNB-19 CNS
[27] = test system: MDA-MB-231 breast
[28] = test system: HCT-116 colon
[29] = test system: SR leukemia
[30] = test system: CCRF-CEM leukemia
[31] = test system: OVCAR-3 ovarian
[32] = test system: HOP-92 NSCLC
[33] = test system: PC-3 prostate
[34] = test system: NCI/ADR-RES ovarian
[35] = test system: SK-MEL-28 melanoma
[36] = test system: MOLT-4 leukemia
[37] = test system: A549 NSCLC
[38] = test system: COLO 205 colon
[39] = test system: IGROV1 ovarian
[40] = test system: CAKI-1 renal
[41] = test system: OVCAR-8 ovarian
[42] = test system: UO-31 renal
[43] = test system: UACC-62 melanoma
[44] = test system: 786-0 renal
[45] = test system: ACHN renal
[46] = test system: NCI-H226 lung
[47] = test system: SK-OV-3 ovarian
[48] = test system: SK-MEL-5 melanoma
[49] = test system: SNB-75 CNS
[50] = test system: RPMI-8226 leukemia
[51] = test system: A498 renal
[52] = test system: HT29 colon
[53] = test system: MDA-MB-435
[54] = test system: T-47D breast
[55] = test system: HL-60(TB) leukemia
[56] = test system: MALME-3M melanoma
[57] = test system: SK-MEL-2 melanoma

Nc1ncnc2c1ncn2C1OC(CO)CC1O (stereo not given)
TGI [1]: > 100 µM | TGI [2]: > 100 µM | TGI [3]: 42.8 µM | TGI [4]: > 100 µM | TGI [5]: > 100 µM | TGI [6]: 70.8 µM | TGI [7]: 82.2 µM | TGI [8]: > 100 µM | TGI [9]: 38.7 µM | TGI [10]: > 100 µM | TGI [11]: > 100 µM | TGI [12]: > 100 µM | TGI [13]: > 100 µM | TGI [14]: > 100 µM | TGI [15]: 80.2 µM | TGI [16]: 43.7 µM | TGI [17]: > 100 µM | TGI [18]: > 100 µM | TGI [19]: > 100 µM | TGI [20]: > 100 µM | TGI [21]: 83.3 µM | TGI [22]: > 100 µM | TGI [23]: > 100 µM | TGI [24]: 92 µM | TGI [25]: > 100 µM | TGI [26]: > 100 µM | TGI [27]: 42.7 µM | TGI [28]: > 100 µM | TGI [29]: > 100 µM | TGI [30]: > 100 µM | TGI [31]: > 100 µM | TGI [32]: > 100 µM | TGI [33]: 40.4 µM | TGI [34]: 55.2 µM | TGI [35]: > 100 µM | TGI [36]: > 100 µM | TGI [37]: > 100 µM | TGI [38]: > 100 µM | TGI [39]: > 100 µM | TGI [40]: > 100 µM | TGI [41]: 49.6 µM | TGI [42]: > 100 µM | TGI [43]: > 100 µM | TGI [44]: 45.8 µM | TGI [45]: > 100 µM | TGI [46]: > 100 µM | TGI [47]: > 100 µM | TGI [48]: > 100 µM | TGI [49]: > 100 µM

COc1ccc2c(c1)OCC1=C2Oc2ccccc2C1
TGI [1]: 95.7 µM | TGI [2]: > 100 µM | TGI [3]: > 100 µM | TGI [4]: > 100 µM | TGI [5]: > 100 µM | TGI [6]: 55.9 µM | TGI [8]: 88.8 µM | TGI [9]: 70.2 µM | TGI [10]: > 100 µM | TGI [12]: > 100 µM | TGI [13]: > 100 µM | TGI [14]: > 100 µM | TGI [15]: > 100 µM | TGI [16]: 54 µM | TGI [17]: > 100 µM | TGI [18]: > 100 µM | TGI [19]: > 100 µM | TGI [20]: 71.1 µM | TGI [21]: > 100 µM | TGI [22]: > 100 µM | TGI [23]: > 100 µM | TGI [50]: > 100 µM | TGI [24]: 71.5 µM | TGI [25]: 87.6 µM | TGI [27]: > 100 µM | TGI [28]: > 100 µM | TGI [29]: > 100 µM | TGI [51]: > 100 µM | TGI [31]: > 100 µM | TGI [33]: > 100 µM | TGI [52]: 90 µM | TGI [34]: > 100 µM | TGI [36]: 85.5 µM | TGI [37]: > 100 µM | TGI [38]: 49.2 µM | TGI [39]: > 100 µM | TGI [40]: > 100 µM | TGI [41]: > 100 µM | TGI [42]: > 100 µM | TGI [43]: > 100 µM | TGI [44]: > 100 µM | TGI [53]: 84.2 µM | TGI [45]: > 100 µM | TGI [46]: > 100 µM | TGI [54]: > 100 µM | TGI [55]: > 100 µM | TGI [47]: > 100 µM | TGI [48]: 28.3 µM | TGI [56]: > 100 µM | TGI [49]: 42.5 µM | TGI [57]: 77.5 µM
